Read-outs that look alike come from different tables or passages of the source.
Key:
carrageenin oedema = assay: Carrageenin oedema test for anti-inflammatory activity; type: in vivo, Male Wistar rats; conditions: rat, per os, aqueous tragacanth suspension, 30 minutes before carrageenin; paw volume 3 hours after carrageenin injection; dose to inhibit the response by 50%; unit assumed
Experimental: Carrageenin oedema test for anti-inflammatory activity
Male Wistar rats weighing 120-150 g were fasted overnight and then received a test compound per os as an aqueous tragacanth suspension. 30 minutes later, inflammation was induced by the subcutaneous injection of 0.05 ml of a 1% carrageenin suspension into the plantar tissue of a hind paw of each rat [Winter et al., Proc. Soc. […] The anti-oedema activity was measured volumetrically, by assessing the response, as calculated from the following equation: […]
where Vo and V represent, respectively, the paw volume immediately before and 3 hours after the carrageenin injection.

pressure-induced pain = assay: Pain test for analgesic activity (modified Randall-Selitto, Brewers' yeast inflamed paw pressure); type: in vivo, Male Wistar-Imamichi rats; conditions: read-out: Analgesic activity ED50
Experimental: Pain test for analgesic activity
This test was conducted according to a modification of the method reported by L. O. Randall and J. J. Selitto in Arch. Int.
Male Wistar-Imamichi rats of 4 weeks of age and weighing 60-90 g were injected with 0.1 ml of a 20% by weight suspension of Brewers' yeast in the right hind paw. […] Each of these was given orally a test compound as an aqueous tragacanth suspension. 1 and 2 hours after administration of the test compound, the pain threshold was determined by observing pain responses (such as struggling or squeaking) when the inflamed or normal paw was subjected to pressure by a machine (Ugo-Basile).

[1] = rat, oral, aqueous tragacanth suspension, pain threshold 1 and 2 hours after administration, effective = at least twice mean pain threshold of controls, Litchfield and Wilcoxon

SMILES: CC(C(=O)O)c1ccc(C=C2CCCCC2O)cc1 (stereo not drawn) [A, 2-[4-(2-hydroxycyclohexylidenemethyl)phenyl]propionic acid]
- Anti-inflammatory activity ID50 (carrageenin oedema): 0.98 mg/kg
- ED50 (pressure-induced pain; [1]): 0.35 mg/kg

SMILES: COc1ccc2c(c1)c(CC(=O)O)c(C)n2C(=O)c1ccc(Cl)cc1 [B, Indomethacin]
- Anti-inflammatory activity ID50 (carrageenin oedema): 2.2 mg/kg
- ED50 (pressure-induced pain; Rattus norvegicus, po): 1.6 mg/kg

SMILES: CC(C(=O)O)c1ccc(C=C2CCCCC2=O)cc1 (stereo not drawn) [C, 2-[4-(2-oxocyclohexylidenemethyl)phenyl]propionic acid]
- Anti-inflammatory activity ID50 (carrageenin oedema): 1.2 mg/kg
- ED50 (pressure-induced pain; [1]): 0.94 mg/kg

— patent US4461912A, “Phenylacetic acid derivatives, their preparation and compositions containing them” (Sankyo Company Limited, priority 1981, dated 1984)
